Assay results from paper PMC12084297, “Cytoplasmic connexin43-microtubule interactions promote glioblastoma stem-like cell maintenance and tumorigenicity” (Cell Death & Disease, 2025).
Entries after “also recorded” stand apart in the source; their conditions may differ.

Key:
[1] = test system: Cx43/α-tubulin interaction; test: STORM localization, cross-pair correlation of Cx43/α-tubulin interaction in VTC-037 GSCs; format: cell-based, human; conditions: 50 μM, 24 h, n = 10
Description: Cells were washed once with warm PBS before fixing in 4% paraformaldehyde for 20 min at room temperature or ice-cold methanol for 5 min on ice, washed twice, and held in PBS at 4°C until immunostaining was conducted. Cells were permeabilized and blocked in 5% normal goat or donkey serum (Fisher Scientific) and 0.1% Triton X-100 in PBS for 2 h at room temperature. Primary antibodies rabbit anti-Cx43 (MilliporeSigma; C6219), mouse anti-pan Cadherin (MilliporeSigma; C1821), or mouse anti-α-tubulin (MilliporeSigma; T6199) were diluted in blocking buffer and labeling was performed overnight at 4 °C. […]
Stochastic optical reconstruction microscopy (STORM) acquisition was conducted with a Vutara 350 microscope (Bruker). […] To quantify the spatial relationship between target proteins localized by STORM, we utilized cross-pair correlation analysis. […]

[2] = test system: VTC-037 GSCs; test: Gliosphere formation assay, VTC-037 GSCs; format: cell-based, human; conditions: VTC-037, 10, 50 or 100 μM every other day, 2 weeks
Description: GSCs and PDX GBM22 cells were plated as single cell suspension in low-attachment 96-well plates (GSCs: 100–500 cells per well; GBM22 cells: 500–2000 cells per well), using methods similar to those reported previously. Cells were then treated with peptides every other day. 2 weeks later, gliospheres were observed using phase contrast microscopy on a Revolve microscope (Echo Laboratories). The number of gliospheres was then determined, while the gliosphere size was assessed by diameter measurement. To evaluate stem cell frequency in GSCs, gliosphere formation assay was performed with limiting cell dilutions with cells plated at varying densities in low-attachment 96-well plates. Cells were treated with peptides every other day, and after 2 weeks, gliosphere-positive wells were observed and scored using phase contrast microscopy on a Revolve microscope. The stem cell frequency was analyzed using the online data analysis program ELDA (Extreme Limiting Dilution Analysis).

[3] = test system: normal human astrocytes; test: MTS viability, human astrocytes; format: cell-based; conditions: 100 μM, 4 days
Description: Cells were plated in 96-well plates (2000–5000 cells per well) and treated the following day with TMZ (10, 50, or 100 μM), antennapedia, JM2-scrambled, or JM2 (10, 50, or 100 μM). After 4 days, cell viability was monitored following addition of MTS reagent (Promega) according to manufacturer’s instructions. The absorbance at 490 nm was measured using a SpectraMax i3 or iD3 microplate reader (Molecular Devices). For the caspase 3/7 activity assay, cells were plated in 96-well plates (2000 cells per well) and treated with TMZ or peptides as described above. The activity of caspase 3/7 was measured after 48 h using the Caspase-Glo® 3/7 assay (Promega) following the manufacturer’s instructions. Fold change of caspase 3/7 activity was defined as the ratio of caspase 3/7 luminescence in treated cells compared to controls.

Sequence: VFFKGVKDRVKGRSD [JM2]
- Cx43-microtubule interaction (cross-pair correlation) [1]: impaired this interaction in situ
- GSC-dependent gliosphere formation [2]: inhibits VTC-001, VTC-034, and VTC-037 GSC-dependent gliosphere formation in a dose-dependent manner
- Gliosphere size (diameter) ([2]; n = 4): significant decrease in gliosphere size
- Gliosphere number ([2]; n = 6): significant decrease in gliosphere size as assessed by diameter measurement (Fig. 6B), and number
- Human astrocyte viability (MTS) [3]: did not observe a decrease in human astrocyte viability, even at higher JM2 concentrations; also recorded: no toxic effect of JM2 on normal human astrocytes in vitro
